Some test systems named below: BT-549 breast; T-47D breast; MDA-N; DMS 273 small cell lung; KM20L2 colon; SNB-78 CNS; LXFL 529 NSCLC; DMS 114 small cell lung; HOP-18 NSCLC; M19-MEL melanoma; XF 498 CNS; DLD-1 colon; P388 leukemia; SN12K1 renal; P388/ADR leukemia.
Common to all, as to test: NCI tumour cell line growth inhibition, 48 h

“And” between values parts separate entries of the source, which are not always exact repeats. Identical values can stand only once.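 Values below derive from 48-hour exposures of cells grown in 96-well plates, with endpoints linearly interpolated between the two concentrations bracketing the appropriate inhibition level. GI50 = concentration required for 50% inhibition of growth. TGI: total growth inhibition.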

Turning to `COc1cc(/C=C/C(=O)OC[C@]23O[C@H]2[C@@H](OC2OC(C)C(O)C(O)C2O)C2C=CO[C@@H](OC4OC(CO)C(O)C(O)C4O)C23)ccc1O` (stereo partly drawn), the TGI with BT-549 breast, in the assay with T-47D breast and in the assay on MDA-N was over 100 µM each time.
As to `c1ccc2c3c(c(N4CCNCC4)nc2c1)CCCC3`, the TGI was 26.9 µM in the assay with BT-549 breast, 28.5 µM with T-47D breast and 28.3 µM in the assay on MDA-N.
For `COc1ccc(/C=N/N=C(N)N)c(C(=O)O)c1OC`, the TGI in the assay on DMS 273 small cell lung, with KM20L2 colon, with SNB-78 CNS, in the assay on LXFL 529 NSCLC, in the assay on DMS 114 small cell lung and with HOP-18 NSCLC was over 100 µM in each case.
Take `NC(=O)c1ccc(N)nc1`: the TGI in the assay with BT-549 breast, with T-47D breast and in the assay with MDA-N was over 400 µM each time.
Regarding `CN(C)CCNc1ccccn1`, the TGI in the assay on BT-549 breast, in the assay on T-47D breast and in the assay on MDA-N was over 100 µM throughout.
Take `O=C1CCCc2ccc3c(c21)CC1(Cc2cc4c(cc2C1)CCCC4)C3`: the TGI came out at 72.6 µM with BT-549 breast and 23.2 µM in the assay on T-47D breast.
`CS(=O)(=O)c1ccc(C2=C(c3ccccc3)C(=O)OC2)cc1`: the TGI with T-47D breast and in the assay with MDA-N was over 100 µM throughout.
Take `O=C1OS2(OC(=O)c3cccc4cccc2c34)c2ccccc21` (stereo not drawn): the TGI with BT-549 breast, in the assay with T-47D breast and with MDA-N was over 100 µM each time.
As for `CC(C)OCC(O)COc1cc(=O)oc2ccccc12` (stereo not drawn), the TGI in the assay with T-47D breast and with MDA-N was over 100 µM each time.
Turning to `COc1ccc(/C=C/C=C2C(=O)NC(=S)NC2=O)cc1`, the TGI with BT-549 breast was 4.62 µM; with T-47D breast, over 100 µM; with MDA-N it was 15.2 µM.
For `CC(C)=CCC[C@@H](C)c1c(O)c(O)c(C)c2nc3ccccc3nc12`, the TGI was 17.1 µM with BT-549 breast, 10.6 µM in the assay on T-47D breast and 15.9 µM in the assay on MDA-N.
The corresponding values for `Cc1cc([C@H](C#N)c2nc3ccccc3s2)nc(Cl)n1` are 35.6 µM, 31.6 µM and over 100 µM.
With `CC1(C)OC2C(CO)OC(/N=C(\NC#N)Oc3ccccc3)C2O1` (stereo not drawn), the TGI in the assay on M19-MEL melanoma, with XF 498 CNS, in the assay with DMS 273 small cell lung, in the assay with KM20L2 colon, with SNB-78 CNS and with LXFL 529 NSCLC was over 100 µM each time. The TGI in the assay on DLD-1 colon and in the assay on DMS 114 small cell lung was over 100 µM throughout.
As for `O=C1CCCn2c3ccccc3c3ccnc1c32`, the TGI was over 100 µM in the assay with M19-MEL melanoma; 74.5 µM in the assay with XF 498 CNS; over 100 µM in the assay with DMS 273 small cell lung; over 100 µM in the assay with KM20L2 colon; over 100 µM in the assay with SNB-78 CNS; over 100 µM in the assay on DLD-1 colon. Moreover, the TGI in the assay with P388 leukemia is over 93.9 µM; in the assay with SN12K1 renal, over 100 µM; with P388/ADR leukemia it was over 100 µM; in the assay with DMS 114 small cell lung, over 100 µM; in the assay with HOP-18 NSCLC it was over 100 µM.
Take `CN(CCN(C)Cc1ccc(Cl)c(Cl)c1)CCN1CCCC1`: the results for the TGI with BT-549 breast, with T-47D breast and with MDA-N were over 100 µM, over 100 µM and 31.4 µM, respectively.
With `C=CCn1c(-c2ccc(N=NNc3ccc(-c4n[nH]c(=S)n4CC=C)cc3)cc2)n[nH]c1=S`, the TGI in the assay on BT-549 breast came to 6.68 µM; in the assay with T-47D breast, 4.76 µM.
Consider `O=c1[nH]c(=O)n(COCCO)cc1-c1ccccc1`, for which the TGI with T-47D breast and in the assay with MDA-N was over 100 µM throughout.
With `CSc1nc(NC2CC2)c2c(n1)Sc1nc3ccccc3n1N=C2`, the TGI in the assay on BT-549 breast and in the assay on MDA-N was over 100 µM throughout.
As for `O=C(NCCc1ccc(F)cc1)c1cc(/C=C/c2cc(O)ccc2O)ccc1O`, the figures for the TGI in the assay on BT-549 breast, in the assay with T-47D breast and in the assay on MDA-N were 2.97 µM, 5.28 µM and 9.59 µM, respectively.
For `COc1cc(C(C)(C)C)c(OC(=O)/C=C/C(=O)O/C=C/[N+](=O)[O-])c(C(C)(C)C)c1`, the TGI in the assay on T-47D breast and in the assay on MDA-N was over 100 µM each time.
Regarding `COC(=O)/C=C1\C(=O)N(C(C)=O)c2ccccc21`, the TGI with BT-549 breast was determined as 27.4 µM; in the assay with T-47D breast, 30.5 µM; in the assay on MDA-N, 25.2 µM.
The corresponding values for `O=C1NC(N2CCOCC2)=N/C1=C\c1ccccc1` are over 100 µM, over 100 µM and over 100 µM.
The matching figures for `C/C(=C/CC[C@](C)(OC1OC(CO)C(O)C(O)C1OC1OC(C)C(O)C(O)C1O)[C@H]1CC[C@]2(C)[C@@H]1CC[C@@H]1[C@@]3(C)CC[C@H](O)C(C)(C)[C@@H]3C[C@H](O)[C@]12C)CO` (stereo partly drawn): over 100 µM, over 100 µM and over 100 µM.
The matching figures for `CCOC(=O)C(C(N)=O)c1nc2cc([N+](=O)[O-])ccc2nc1/C=C(\O)c1ccc(C)cc1` (stereo not drawn): 51.4 µM, over 100 µM and over 100 µM.
`NC1=CN2c3ccccc3N(CC(=O)N3CCOCC3)C2C=C1` (stereo not drawn): the TGI in the assay with BT-549 breast, with T-47D breast and with MDA-N was over 100 µM each time.
`CCCCOP(=O)(OCCCC)C(NS(=O)(=O)c1ccccc1)(C(=O)OCC)C(F)(F)F` (stereo not drawn): the TGI in the assay with T-47D breast and in the assay on MDA-N was over 100 µM throughout.
Regarding `COC(CO[Si](C)(C)N[Si](C)(C)OCC(OC)c1ccccc1)c1ccccc1` (stereo not drawn), the TGI in the assay with BT-549 breast, with T-47D breast and in the assay with MDA-N was over 100 µM in each case.
For `O=C(NC12CC3CC(CC(C3)C1)C2)n1cnc2cncnc21`, the TGI in the assay with BT-549 breast, in the assay with T-47D breast and in the assay with MDA-N was over 100 µM in each case.
For the compound `C/C(=N\NC(=S)N/N=C(\C)c1ccccn1)c1ccccn1`, the TGI with BT-549 breast, with T-47D breast and with MDA-N was over 100 µM throughout.
In the case of `Cc1cc(C)c2c(=O)n(CC(O)CN3CCN(c4ncccn4)CC3)sc2n1` (stereo not drawn), the figures for the TGI in the assay with BT-549 breast, in the assay on T-47D breast and in the assay on MDA-N were 32.3 µM, 52.9 µM and 29.5 µM, respectively.
For the compound `CO/C=C(/C(=O)OC)c1ccccc1[C@H]1C[C@@H]1c1ccc(OC)cc1`, the TGI amounted to 46.6 µM in the assay with BT-549 breast, 56.7 µM in the assay on T-47D breast and 56.7 µM with MDA-N.
Regarding `CC1CN=C(c2ccc3c(c2)Cc2cc(C4=NCC(C)N4)ccc2-3)N1` (stereo not drawn), the TGI with BT-549 breast, with T-47D breast and in the assay with MDA-N was over 100 µM throughout.
Take `CCOC(=O)Cn1c(=O)c2cc(C)cc3c(Cl)nc4c(OC)c(OC)cc1c4c32`: the TGI in the assay with BT-549 breast and with MDA-N was over 100 µM each time.
Take `CS(=O)(=O)c1nc(-c2cc3c(c(S(C)(=O)=O)n2)CCC3)cc2c1CCC2`: the TGI in the assay on BT-549 breast and with MDA-N was over 100 µM in each case.
On to `COC12OC3(C4OC41)C(C(=O)O[C@H]3CO[Si](C)(C)C(C)(C)C)C2S(=O)(=O)c1ccccc1` (stereo partly drawn), for which the TGI in the assay with BT-549 breast and in the assay with T-47D breast was over 100 µM in each case.
`O=C(OCc1ccccc1[N+](=O)[O-])N1c2ccccc2[C@@]23O[C@]24CCC[C@H]3C#C/C=C\C#C[C@H]14`: the TGI with BT-549 breast, in the assay with T-47D breast and in the assay on MDA-N was over 100 µM each time.
With `Oc1cccc(-c2cc(=S)ss2)c1`, the TGI in the assay with BT-549 breast is 35.8 µM.
As to `Nc1nc(-c2ccccc2)cc(-c2ccc(F)cc2)c1-c1ccc(Cl)cc1`, the TGI in the assay with BT-549 breast, with T-47D breast and with MDA-N was over 100 µM in each case.
Turning to `Cc1cc(S(=O)(=O)Nc2nc(N)n(-c3ccccc3)n2)c(S)cc1Cl`, the TGI in the assay on BT-549 breast, in the assay on T-47D breast and with MDA-N was over 100 µM throughout.
With `NCCCCN(CCCN)C(=O)OCc1ccccc1`, the TGI in the assay on BT-549 breast and in the assay on T-47D breast was over 100 µM in each case.
On to `N#CCCN(CCN(CCN(C(=O)Nc1ccccc1)c1ccccc1)C(=O)Nc1ccccc1)C(=O)Nc1ccccc1`, for which the TGI with BT-549 breast, in the assay on T-47D breast and with MDA-N was over 100 µM throughout.
Consider `CC12CCC3=C(CSC4=C3CSc3ccccc34)C1=CCCC2=O` (stereo not drawn), for which the TGI is over 100 µM with M19-MEL melanoma; 87.3 µM with XF 498 CNS; over 100 µM in the assay on DMS 273 small cell lung; over 100 µM in the assay on KM20L2 colon; over 100 µM in the assay on LXFL 529 NSCLC; over 100 µM in the assay with DLD-1 colon. Further, the TGI in the assay with DMS 114 small cell lung and in the assay on HOP-18 NSCLC was over 100 µM each time.
`O=C(O)CC(Cc1ccccc1)C(=O)O` (stereo not drawn): the TGI in the assay with BT-549 breast, in the assay with T-47D breast and in the assay on MDA-N was over 100 µM in each case.
Regarding `COC(=O)c1ccc2c(c1)CCN2C(=O)c1cc2c(cc1Br)OCO2`, the results for the GI50 in the assay with BT-549 breast, with T-47D breast and in the assay with MDA-N were 0.424 µM, 0.982 µM and 0.252 µM, respectively. Besides, the TGI in the assay with BT-549 breast is 45.5 µM and 5.57 µM; with T-47D breast it was 50 µM and 51.9 µM; with MDA-N it was 0.244 µM and 0.841 µM.
As to `CCNc1nc2ccccc2nc1NCC`, the TGI in the assay with BT-549 breast and with MDA-N was over 100 µM each time.
For the compound `C=CCCCN1C(=O)C2C3c4ccccc4C(C=O)(c4ccccc43)C2C1=O` (stereo not drawn), the TGI is over 100 µM in the assay on T-47D breast and 27.9 µM with MDA-N.
On to `O=c1[nH]/c(=C/c2cccs2)c(=O)[nH]/c1=C/c1ccc(OCc2ccccc2)cn1`, for which the TGI was determined as 3.75 µM in the assay with BT-549 breast and 0.0766 µM in the assay with MDA-N.
As to `Brc1ccc2c(c1)[C@H]1CCc3c([nH]c4ccccc34)[C@H]1N2`, the figures for the TGI in the assay on BT-549 breast, in the assay on T-47D breast and in the assay on MDA-N were 34.7 µM, 16.8 µM and 28.7 µM, respectively.
The matching figures for `CCCCc1ccc(Nc2nc(N)c3[nH]cnc3n2)cc1`: 47.9 µM, over 100 µM and 32.6 µM.
Take `COc1ccc(NC(=O)c2cc(NC(=O)/C=C/c3ccccc3)c(OC)c(OC)c2)cc1`: the TGI in the assay on T-47D breast was over 100 µM; in the assay on MDA-N, 16.5 µM.
For `c1ccc(C[P+]2(c3ccccc3)CCCCC2)cc1`, the TGI in the assay with M19-MEL melanoma is over 100 µM; with XF 498 CNS, 98.2 µM; with DMS 273 small cell lung, over 100 µM; in the assay on KM20L2 colon it was over 100 µM; in the assay on SNB-78 CNS it was over 100 µM; in the assay with LXFL 529 NSCLC it was over 100 µM. The TGI in the assay on DLD-1 colon, with DMS 114 small cell lung and with HOP-18 NSCLC was over 100 µM throughout.
Regarding `C(=C/c1ccc2nc(-c3ccc(/C=C/C=N/NC4=NCCCN4)cc3)cn2c1)/C=N/NC1=NCCCN1`, the TGI in the assay with BT-549 breast, in the assay on T-47D breast and in the assay with MDA-N was over 100 µM in each case.
`CC(CCC(=O)O)(c1cc(Br)c(O)c(Br)c1)c1cc(Br)c(O)c(Br)c1`: the TGI in the assay with BT-549 breast, in the assay on T-47D breast and in the assay on MDA-N was over 100 µM in each case.
For the compound `O=C1N2CCN=C2c2ccccc2C1(O)c1ccccc1` (stereo not drawn), the TGI in the assay with BT-549 breast, in the assay on T-47D breast and with MDA-N was over 100 µM in each case.
`COc1cc2[nH]c(=O)[nH]c2c2c(C)c[nH]c12`: the TGI with BT-549 breast, in the assay on T-47D breast and in the assay on MDA-N was over 100 µM throughout.
`CC(=O)Nc1ccc(S(=O)(=O)/N=c2/sc(S(N)(=O)=O)nn2C)cc1` had a TGI with BT-549 breast of over 100 µM.
